Each structure is given as a SMILES string.

The target of the assay is T1, Human MrgprX2 (Homo sapiens, UniProt Q96LB1).
T1 construct: expressed in transfected cells; host or cells: recombinant cells
T1 sequence (Q96LB1 1-330): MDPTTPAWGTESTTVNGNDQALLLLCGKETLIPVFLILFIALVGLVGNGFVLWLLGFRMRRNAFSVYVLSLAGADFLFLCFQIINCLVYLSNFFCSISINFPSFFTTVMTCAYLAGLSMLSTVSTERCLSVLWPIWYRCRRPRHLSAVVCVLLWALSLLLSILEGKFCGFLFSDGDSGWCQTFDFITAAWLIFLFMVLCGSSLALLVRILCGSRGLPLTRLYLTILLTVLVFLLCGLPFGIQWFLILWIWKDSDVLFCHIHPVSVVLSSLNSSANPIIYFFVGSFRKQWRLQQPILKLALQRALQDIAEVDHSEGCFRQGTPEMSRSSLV
The assay can be described thus: FLIPR intracellular calcium mobilization antagonist assay in recombinant hMrgpMRGPRX2 expressing cells. Particulars: antagonist activity, read-out: Human MrgprX2 Antagonist pIC50 (converted). The format is cell-based. From the text:
[Worded in the source for another species; this species is reported under the same test.] The assays used to determine potencies are functional read-out looking at intracellular calcium mobilization using the FLIPR™ technology. In these FLIPR assays, we test the identified compounds using recombinant cellular systems expressing mouse MrgprB2, mouse MrgprA1, gerbil MrgpMRGPRX2 orthologue, Chinese hamster MrgpMRGPRX2 orthologue and cynomolgus monkey MrgpMRGPRX2 orthologue, respectively for orthologue activity.
For orientation: Calcium flux is commonly read through the fluorescence of an indicator in the cells.

`CN(CC(C)(O)C(F)(F)F)C(=O)Nc1nnc(Cc2cccc(F)c2)s1` (single isomer, unassigned) [Example E50, 3-[5-[(3-fluorophenyl)methyl]-1,3,4-thiadiazol-2-yl]-1-methyl-1-(3,3,3-trifluoro-2-hydroxy-2-methyl-propyl)urea]: the IC50 was 0.295 µM.
Turning to `CN(CC(C)(O)C(F)(F)F)C(=O)Nc1nnc(Cc2cccc(F)c2)s1` (single isomer, unassigned) [Example E51, 3-[5-[(3-fluorophenyl)methyl]-1,3,4-thiadiazol-2-yl]-1-methyl-1-(3,3,3-trifluoro-2-hydroxy-2-methyl-propyl)urea], the IC50 was 10 µM.
On to `CCN(CC(C)(O)C(F)(F)F)C(=O)Nc1nnc(Cc2cccc(F)c2)s1` (single isomer, unassigned) [Example E52, 1-ethyl-3-[5-[(3-fluorophenyl)methyl]-1,3,4-thiadiazol-2-yl]-1-(3,3,3-trifluoro-2-hydroxy-2-methyl-propyl)urea], for which the IC50 is 0.0501 µM.
For `CCN(CC(C)(O)C(F)(F)F)C(=O)Nc1nnc(Cc2cccc(F)c2)s1` (single isomer, unassigned) [Example E53, 1-ethyl-3-[5-[(3-fluorophenyl)methyl]-1,3,4-thiadiazol-2-yl]-1-(3,3,3-trifluoro-2-hydroxy-2-methyl-propyl)urea], the IC50 was 3.39 µM.
On to `CC(C)C(=O)Nc1nnc(Cc2cccc(F)c2)s1` [Example E01, N-[5-[(3-fluorophenyl)methyl]-1,3,4-thiadiazol-2-yl]-2-methyl-propanamide], for which the IC50 was 2.51 µM.
Turning to `CC(C)C(=O)Nc1nnc(Cc2ccc(F)cc2)s1` [Example E02], the IC50 was 7.94 µM.
For `CC(C)C(=O)Nc1nnc(Cc2cc(F)cc(F)c2)s1` [Example E03], the IC50 is 0.251 µM.
On to `CC(C)C(=O)Nc1nnc(Cc2cccc(F)c2F)s1` [Example E04], for which the IC50 was 1.26 µM.
Take `CC(C)C(=O)Nc1nnc(Cc2cc(F)ccc2F)s1` [Example E05]: the IC50 is 2.51 µM.
Turning to `CC(C)C(=O)Nc1nnc(Cc2ccc(F)c(F)c2)s1` [Example E06], the IC50 is 1.58 µM.
`CC1(C(=O)Nc2nnc(Cc3cc(F)cc(F)c3)s2)CCOCC1` [Example E07]: the IC50 is 1 µM.
`CC1(C(=O)Nc2nnc(Cc3cc(F)cc(F)c3)s2)CCOC1` (stereo not drawn) [Example E08]: the IC50 is 2 µM.
For `CCN(C[C@H](C)O)C(=O)Nc1nnc(Cc2cccc(F)c2F)s1` [Example E09, 3-[5-[(2,3-difluorophenyl)methyl]-1,3,4-thiadiazol-2-yl]-1-ethyl-1-[(2S)-2-hydroxypropyl]urea], the IC50 is 1.58 µM.
The same measure for `CCN(C[C@H](C)O)C(=O)Nc1nnc(Cc2cc(F)cc(F)c2)s1` [Example E10]: 0.251 µM; for `CCN(C[C@H](C)O)C(=O)Nc1nnc(Cc2cccc(F)c2)s1` [Example E11]: 3.16 µM; for `CCN(C[C@H](C)O)C(=O)Nc1nnc(Cc2cc(F)ccc2F)s1` [Example E12]: 2 µM.
On to `CCN(C[C@H](C)O)C(=O)Nc1nnc(Cc2ccc(F)c(F)c2)s1` [Example E13], for which the IC50 is 2 µM.
On to `C[C@H](O)CN(C)C(=O)Nc1nnc(Cc2cc(F)cc(F)c2)s1` [Example E14], for which the IC50 was 2.51 µM.
The same measure for `C[C@@H](O)CN(C)C(=O)Nc1nnc(Cc2cc(F)cc(F)c2)s1` [Example E15]: 3.98 µM.
In the case of `O=C(Nc1nnc(Cc2cc(F)cc(F)c2)s1)N1CCC[C@@H]1CO` [Example E16], the IC50 was 2 µM.
Turning to `CC(CO)N(C)C(=O)Nc1nnc(Cc2cc(F)cc(F)c2)s1` (stereo not drawn) [Example E17], the IC50 is 3.98 µM.
`CN(CC(C)(C)O)C(=O)Nc1nnc(Cc2cc(F)cc(F)c2)s1` [Example E20]: the IC50 is 0.2 µM.
Consider `CCN(C[C@H](C)O)C(=O)Nc1nnc(Cc2cccc(C)c2)s1` [Example E21], for which the IC50 is 7.94 µM.
For the compound `CCN(C[C@H](C)O)C(=O)Nc1nnc(Cc2cc(C)cc(F)c2)s1` [Example E22], the IC50 was 0.794 µM.
In the case of `CCN(C[C@@H](O)C(F)(F)F)C(=O)Nc1nnc(Cc2cc(F)cc(F)c2)s1` [Example E23], the IC50 is 0.00794 µM.
Regarding `CCN(C[C@H](C)O)C(=O)Nc1nnc(Cc2cc(F)cc(Cl)c2)s1` [Example E24], the IC50 is 0.1 µM.
Regarding `O=C(Nc1nnc(Cc2cc(F)cc(F)c2)s1)N1CCCC1` [Example E25], the IC50 is 7.94 µM.
Consider `CN(CC1CCCO1)C(=O)Nc1nnc(Cc2cc(F)cc(F)c2)s1` (stereo not drawn) [Example E26], for which the IC50 was 1.26 µM.
Turning to `CN(CC1CCOC1)C(=O)Nc1nnc(Cc2cc(F)cc(F)c2)s1` (stereo not drawn) [Example E27], the IC50 was 6.31 µM.
`O=C(Nc1nnc(Cc2cc(F)cc(F)c2)s1)N1CC[C@H](O)C1` [Example E28]: the IC50 was 5.01 µM.
To `O=C(Nc1nnc(Cc2cc(F)cc(F)c2)s1)N1CCC(C(F)(F)F)C1` (stereo not drawn) [Example E29] belongs 0.631 µM; to `CCN(CC1(O)CC1)C(=O)Nc1nnc(Cc2cc(F)cc(F)c2)s1` [Example E30], 0.0794 µM; to `CN(CC1(O)CC1)C(=O)Nc1nnc(Cc2cc(F)cc(F)c2)s1` [Example E31], 1.26 µM.
Consider `CCN(C[C@H](C)O)C(=O)Nc1nnc(Cc2cc(Cl)cc(Cl)c2)s1` [Example E32], for which the IC50 is 0.158 µM.
The same measure for `CN(CC(C)(O)C(F)(F)F)C(=O)Nc1nnc(Cc2cc(F)cc(F)c2)s1` (stereo not drawn) [Example E33]: 0.0158 µM.
To `CCN(C[C@H](C)O)C(=O)Nc1nnc(Cc2cc(Cl)ccc2F)s1` [Example E34] belongs 3.98 µM.
For the compound `CCN(C[C@H](C)O)C(=O)Nc1nnc(Cc2ccc(F)c(Cl)c2)s1` [Example E35], the IC50 was 0.794 µM.
To `CCN(C[C@@H](O)C(F)(F)F)C(=O)Nc1nnc(Cc2cccc(F)c2)s1` [Example E36] belongs 0.2 µM; to `CCN(C[C@@H](O)C(F)(F)F)C(=O)Nc1nnc(Cc2cccc(Cl)c2)s1` [Example E37], 0.158 µM.
To `CCN(CC(C)(C)O)C(=O)Nc1nnc(Cc2cc(F)cc(F)c2)s1` [Example E38] belongs 0.0398 µM.
Consider `CCN(CC(C)(C)O)C(=O)Nc1nnc(Cc2cccc(F)c2)s1` [Example E39], for which the IC50 was 0.724 µM.
For `CN(CC(C)(O)C(F)(F)F)C(=O)Nc1nnc(Cc2cccc(F)c2)s1` (stereo not drawn) [Example E40, 3-[5-[(3-fluorophenyl)methyl]-1,3,4-thiadiazol-2-yl]-1-methyl-1-(3,3,3-trifluoro-2-hydroxy-2-methyl-propyl)urea], the IC50 was 0.316 µM.
On to `CCN(CC(C)(C)O)C(=O)Nc1nnc(Cc2cc(F)cc(Cl)c2)s1` [Example E41], for which the IC50 is 0.0166 µM.
Take `CCN(CC(C)(O)C(F)(F)F)C(=O)Nc1nnc(Cc2cccc(F)c2)s1` (stereo not drawn) [Example E42, 1-ethyl-3-[5-[(3-fluorophenyl)methyl]-1,3,4-thiadiazol-2-yl]-1-(3,3,3-trifluoro-2-hydroxy-2-methyl-propyl)urea]: the IC50 is 0.0479 µM.
`CCN(C[C@@H](O)C(F)(F)F)C(=O)Nc1nnc(Cc2cc(C)cc(F)c2)s1` [Example E43]: the IC50 was 0.0692 µM.
To `CN(CC(C)(C)O)C(=O)Nc1nnc(Cc2cc(Cl)cc(Cl)c2)s1` [Example E44] belongs 0.162 µM; to `CN(C[C@@H](O)C(F)(F)F)C(=O)Nc1nnc(Cc2cc(Cl)cc(Cl)c2)s1` [Example E45], 0.288 µM.
On to `CCN(CC(C)(C)O)C(=O)Nc1nnc(Cc2cc(C)cc(F)c2)s1` [Example E46], for which the IC50 was 0.372 µM.
Consider `CN(C[C@@H](O)C(F)(F)F)C(=O)Nc1nnc(Cc2cc(F)cc(Cl)c2)s1` [Example E47], for which the IC50 was 0.135 µM.
On to `CCN(C[C@@H](O)C(F)(F)F)C(=O)Nc1nnc(Cc2cc(F)cc(Cl)c2)s1` [Example E48], for which the IC50 is 0.0141 µM.
Regarding `CCN(C[C@@H](O)C(F)(F)F)C(=O)Nc1nnc(Cc2cc(Cl)cc(Cl)c2)s1` [Example E49], the IC50 is 0.038 µM.
In the case of `CN(C[C@](C)(O)C(F)(F)F)C(=O)Nc1nnc(Cc2cc(F)cc(F)c2)s1` [Example E54, 3-[5-[(3,5-difluorophenyl)methyl]-1,3,4-thiadiazol-2-yl]-1-methyl-1-[(2S)-3,3,3-trifluoro-2-hydroxy-2-methyl-propyl]urea], the IC50 is 0.126 µM.
As to `CN(C[C@@](C)(O)C(F)(F)F)C(=O)Nc1nnc(Cc2cc(F)cc(F)c2)s1` [Example E55], the IC50 was 0.01 µM.
For `CN(C[C@@](C)(O)C(F)(F)F)C(=O)Nc1nnc(Cc2cc(F)cc(Cl)c2)s1` [Example E56], the IC50 is 0.0162 µM.
Consider `Cc1cc(F)cc(Cc2nnc(NC(=O)N(C)C[C@@](C)(O)C(F)(F)F)s2)c1` [Example E57], for which the IC50 was 0.0851 µM.
The same measure for `CC(C)NC(=O)c1nnc(Cc2cc(F)cc(F)c2)s1` [Example E58, 5-[(3,5-difluorophenyl)methyl]-N-isopropyl-1,3,4-thiadiazole-2-carboxamide]: 3.16 µM; for `CCN(C[C@H](C)O)C(=O)Nc1nnc(C(C)(C)c2cc(F)cc(F)c2)s1` [Example E59, 3-[5-[1-(3,5-difluorophenyl)-1-methyl-ethyl]-1,3,4-thiadiazol-2-yl]-1-ethyl-1-[(2S)-2-hydroxypropyl]urea]: 2.51 µM.

These data come from patent US20230002336A1, “MrgprX2 Antagonists and Uses Thereof” (Dermira, Inc., priority 2019, published 2023).
